# Results: patent US20240199564A1, “TRPM8 AGONISTS AS COOLING AGENTS AND FOR THE TREATMENT OF DISEASE” (Concentric Analgesics, Inc., priority 2021, published 2024)
# Columns and labels:
# [1] = cited from earlier work
# [2] = target: T1, human TRPM8 receptor expressed in transfected 293H cells (Homo sapiens, UniProt Q7Z2W7); assay: TRPM8 Human Transient Potential Ion Channel Cell Based Agonist Calcium Flux Assay (FLIPR); conditions: Ca2+ mobilization, fluorometric detection, 293H cells; response relative to 3 μM icilin; read-out: TRPM8 agonist EC50
# T1 construct: expressed in transfected cells; host or cells: 293H cells
# From the text: This example discloses results from TRPM8 Human Transient Potential Ion Channel Cell Based Agonist Calcium Flux Assay. Evaluation of the agonist activity of compounds at the human TRPM8 receptor expressed in transfected 293H cells, determined by measuring their effect on cytosolic Ca2+ ion mobilization using a fluorometric detection method.
# Protocol: The cells are suspended in DMEM buffer (Invitrogen), then distributed in microplates at a density of 3×10^4 cells/well. The fluorescent probe (Fluo4 Direct, Invitrogen) in HBSS buffer (Invitrogen) complemented with 20 mM Hepes (Invitrogen) (pH 7.4) is then added into each well and equilibrated with the cells for 60 min at 37° C. then 15 min at 22° C. Thereafter, the assay plates are positioned in a microplate reader (CellLux, PerkinElmer) which is used for the addition of the test compound, reference agonist or HBSS buffer (basal control), and the measurements of changes in fluorescence intensity which varies proportionally to the free cytosolic Ca2+ ion concentration. For stimulated control measurements, Icilin at 3 μM is added in separate assay wells. The results are expressed as a percent of the control response to 3 μM icilin. The standard reference agonist is Icilin, which is tested in each experiment at several concentrations to generate a concentration-response curve from which its EC50 value is calculated. (Behrendt, H. J., Germann, T., Gillen, C and Hatt, H. and Jostock, R. (2004), Characterization of the mouse cold-menthol receptor TRPM8 and vanilloid receptor type-1 VR1 using a fluorometric imaging plate reader (FLIPR) assay, Br. J. Pharmacol., 141: 737.)
# Data analysis: EC50 values were determined as the concentration of test substance required to produce half-maximal increases in [Ca^2+]. Maximal [Ca^2+] responses were measured as peak fluorescence intensity (FI) minus basal FI, and expressed as percentages of the maximum response to icilin. Data are given as means±s.e.m., unless otherwise stated.
# The EC50 values (concentration producing a half-maximal response) and IC50 values (concentration causing a half-maximal inhibition of the control agonist response) were determined by non-linear regression analysis of the concentration-response curves generated with mean replicate values using Hill equation curve fitting:
# where Y=response, A=left asymptote of the curve, D=right asymptote of the curve, C=compound concentration, and C50=EC50, and nH=slope factor.
# [3] = Solubility assay in DI water; assay type: physicochemical; conditions: DI water, thermodynamic from solid, HCl salts, visual, stepwise dilution from 200 mg/mL, sonication and vortex
# Procedure: In order to determine the aqueous solubility of the compounds indicated, the HCl salts of the following compounds were incubated at 200 mg/mL in DI water followed by sonication for 60 seconds and then vortex stirring for 60 seconds. If insoluble material was observed, the sample was diluted to 150, 100, 50, 25, or 20 mg/mL until no insoluble material was observed. After each dilution, each sample was sonicated for 60 seconds, vortexed for 60 seconds and let equilibrate with occasional shaking for 30 minutes.
# [4] = Solution state stability assay; assay type: physicochemical; conditions: 50° C.; for % degradation at 28 days: HPLC
# Procedure: Compounds were incubated in the buffer media indicated (ingredients for making of PBS buffer and sodium citrate/citric acid buffer were obtained from Sigma-Aldrich, St. Louis, MO, USA). The reactions were conducted at either 50° C. and for 28 days. Samples were collected at specific time points and analyzed for % degradation of the parent compound based on UV/Vis analysis.
# Methods: Samples were weighed using a Mettler Toledo XS105 analytical balance (accurate to +/−0.01 mg). Accurate dilutions were made with a P1000, P200, or P20 Gilson Pipetman, or an Eppendorf Maxipettor 1-10 mL pipettor. pH Measurements were made with a Hanna Instruments HI 4222 pH meter and a Hanna instruments HI 1330B micro pH probe. Samples were analyzed via high pressure liquid chromatography using an Agilent series 1100 HPLC instrument with a Grace Alltima column. Chromatograms were manually integrated. Individual chromatograms are assigned an automatic HPLC identification number.
# Freshly prepared 1.0 mg/mL solution of each compound listed in Table # was allotted into two-dram clear glass vials. […] The vials were then stored in an oven set to 50° C. At the appropriate time points, the vials were removed from the oven, vortexed for 30 seconds and an aliquot (400 μL) was pipetted into an HPLC vial and quenched with 1% TFA in ACN (400 μL). […] For all samples, aliquots were taken after 28 days. Quenched vials were immediately analyzed via HPLC.
# T1 sequence (Q7Z2W7 whole entry): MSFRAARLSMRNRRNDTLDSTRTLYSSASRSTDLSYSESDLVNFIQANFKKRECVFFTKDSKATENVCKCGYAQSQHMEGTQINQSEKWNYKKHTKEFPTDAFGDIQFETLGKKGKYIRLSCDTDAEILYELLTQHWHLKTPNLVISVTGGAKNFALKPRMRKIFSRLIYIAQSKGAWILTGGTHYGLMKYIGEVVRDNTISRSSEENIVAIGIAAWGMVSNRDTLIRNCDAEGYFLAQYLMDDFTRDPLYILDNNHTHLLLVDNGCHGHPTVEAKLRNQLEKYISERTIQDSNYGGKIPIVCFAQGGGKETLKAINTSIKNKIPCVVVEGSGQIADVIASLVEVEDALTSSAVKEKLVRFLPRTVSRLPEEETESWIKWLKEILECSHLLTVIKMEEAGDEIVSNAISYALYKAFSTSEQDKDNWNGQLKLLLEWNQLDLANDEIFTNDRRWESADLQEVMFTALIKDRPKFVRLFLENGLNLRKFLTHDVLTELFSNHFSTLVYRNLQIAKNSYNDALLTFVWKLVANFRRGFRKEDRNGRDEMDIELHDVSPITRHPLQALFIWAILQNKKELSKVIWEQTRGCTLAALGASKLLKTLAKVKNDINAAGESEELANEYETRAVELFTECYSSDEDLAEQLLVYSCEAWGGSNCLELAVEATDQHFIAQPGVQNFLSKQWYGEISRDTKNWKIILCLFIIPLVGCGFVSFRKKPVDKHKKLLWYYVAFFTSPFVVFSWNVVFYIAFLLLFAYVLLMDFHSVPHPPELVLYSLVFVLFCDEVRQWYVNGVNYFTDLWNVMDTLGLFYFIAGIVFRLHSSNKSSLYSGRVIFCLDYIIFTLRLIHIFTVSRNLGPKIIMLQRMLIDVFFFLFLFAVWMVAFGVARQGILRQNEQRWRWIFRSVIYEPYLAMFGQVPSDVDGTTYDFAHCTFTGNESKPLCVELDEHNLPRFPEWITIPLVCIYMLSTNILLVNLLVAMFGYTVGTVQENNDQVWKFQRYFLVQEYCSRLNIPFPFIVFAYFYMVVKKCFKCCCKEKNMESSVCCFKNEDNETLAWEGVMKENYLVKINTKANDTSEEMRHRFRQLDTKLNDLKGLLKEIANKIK
EC50 [2] [nM],solubility at 30 min [3] [mg/mL],"aqueous stability / hydrolysis, comparison in words ([4]; buffer, 28 days)",% degradation at 28 days ([4]; pH = ~5.0 (0.2 M aqueous sodium citrate/citric acid buffer)) [%],% degradation at 28 days ([4]; pH = ~7.4 (1X Phosphate Buffered Saline)) [%],SMILES,known aqueous solubility in water [1] [mg/mL]
,,,,,"CC(C)[C@@H]1CC[C@@H](C)C[C@H]1O [menthol, (1R,2S,5R)-2-isopropyl-5-methylcyclohexanol]",~0.4
100,≥ 20,greatest aqueous stability,~7.1,~1.7,"CC(C)[C@@H]1CC[C@@H](C)C[C@H]1C(=O)NCc1ccc(CN)cc1.Cl [Compound 4, (1R,2S,5R)-N-(4-(aminomethyl)benzyl)-2-isopropyl-5-methylcyclohexanecarboxamide hydrochloride]",
